In ChEMBL document CHEMBL1201862, “PubChem BioAssay data set” (2004):
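Each compound was tested at five concentrations against cells in 96-well plates for 48 hours. Here, GI50 denotes the concentration required for 50% inhibition of growth.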 Active and inactive are the calls of the source. Cut-off read from the data, not from the text of the source: active = GI50 up to about 1.1 µM and inactive = higher.

Columns and labels:
Assay in all cases: NCI tumour cell line growth inhibition, 48 h
[1] = test system: UACC-257
[2] = test system: COLO 205
[3] = test system: HCC 2998
[4] = test system: OVCAR-8
[5] = test system: SNB-75
[6] = test system: HL-60
[7] = test system: NCI-H23
[8] = test system: ACHN
[9] = test system: HOP-62
[10] = test system: TK-10
[11] = test system: NCI-H226
[12] = test system: OVCAR-5
[13] = test system: U-251
[14] = test system: A549
[15] = test system: 786-0
[16] = test system: HCT-15
[17] = test system: SR

SMILES	GI50 [1]	GI50 [2]	GI50 [3]	GI50 [4]	GI50 [5]	GI50 [6]	GI50 [7]	GI50 [8]	GI50 [9]	GI50 [10]	GI50 [11]	GI50 [12]	GI50 [13]	GI50 [14]	GI50 [15]	GI50 [16] [µM]	GI50 [17]
C/C(CC(=O)Nc1ccc([N+](=O)[O-])cc1)=N/N=C(N)N	> 100 µM (inactive)	> 100 µM (inactive)	> 100 µM (inactive)	> 100 µM (inactive)	> 100 µM (inactive)	> 100 µM (inactive)	> 100 µM (inactive)	> 100 µM (inactive)	> 100 µM (inactive)	> 100 µM (inactive)	> 100 µM (inactive)	> 100 µM (inactive)	> 100 µM (inactive)	> 100 µM (inactive)	> 100 µM (inactive)	–	–
CC(C)(CN1C(=O)C(Cl)=C(Cl)C1=O)CN1C(=O)C(Cl)=C(Cl)C1=O	13.9 µM (inactive)	3.23 µM (inactive)	12 µM (inactive)	6.34 µM (inactive)	22.2 µM (inactive)	0.552 µM (active)	11.7 µM (inactive)	9.44 µM (inactive)	22.1 µM (inactive)	9.02 µM (inactive)	22.5 µM (inactive)	19.8 µM (inactive)	18.1 µM (inactive)	35.5 µM (inactive)	11.7 µM (inactive)	8.63	2.58 µM (inactive)
CCN1C(=O)C(N=[N+]=[N-])(c2ccccc2)C(=O)c2ccccc21 (stereo not given)	46.6 µM (inactive)	> 100 µM (inactive)	> 100 µM (inactive)	–	83 µM (inactive)	21.6 µM (inactive)	57.1 µM (inactive)	> 100 µM (inactive)	> 100 µM (inactive)	> 100 µM (inactive)	46.7 µM (inactive)	> 100 µM (inactive)	> 100 µM (inactive)	55.8 µM (inactive)	> 100 µM (inactive)	59.2	36.3 µM (inactive)
O=[N+]([O-])c1ccc(C(O)/C(=N/O)c2nc3ccc(Cl)cc3nc2O)cc1 (stereo not given)	> 100 µM (inactive)	> 100 µM (inactive)	> 100 µM (inactive)	> 100 µM (inactive)	> 100 µM (inactive)	> 100 µM (inactive)	–	> 100 µM (inactive)	> 100 µM (inactive)	> 100 µM (inactive)	–	–	> 100 µM (inactive)	> 100 µM (inactive)	> 100 µM (inactive)	> 100	> 100 µM (inactive)
Cc1cc(Br)cc(C)c1NC(=O)C(=O)C(C(=O)c1ccc2ccccc2c1)C1OC(=O)c2ccccc21 (stereo not given)	10.7 µM (inactive)	16.3 µM (inactive)	11 µM (inactive)	7.18 µM (inactive)	14.3 µM (inactive)	4.45 µM (inactive)	7.53 µM (inactive)	15.2 µM (inactive)	12.2 µM (inactive)	21.1 µM (inactive)	4.85 µM (inactive)	7.14 µM (inactive)	5.78 µM (inactive)	22.4 µM (inactive)	6.03 µM (inactive)	17.3	2.47 µM (inactive)
NC12CC3CC(C1)CC(C(=O)O)(C3)C2	> 100 µM (inactive)	–	> 100 µM (inactive)	> 100 µM (inactive)	> 100 µM (inactive)	> 100 µM (inactive)	> 100 µM (inactive)	> 100 µM (inactive)	> 100 µM (inactive)	> 100 µM (inactive)	–	> 100 µM (inactive)	> 100 µM (inactive)	> 100 µM (inactive)	> 100 µM (inactive)	> 100	> 100 µM (inactive)
O=C1CC(c2c[nH]c3ccccc23)C(=O)N1c1ccccc1 (stereo not given)	> 100 µM (inactive)	–	> 100 µM (inactive)	> 100 µM (inactive)	> 100 µM (inactive)	> 100 µM (inactive)	> 100 µM (inactive)	> 100 µM (inactive)	> 100 µM (inactive)	> 100 µM (inactive)	> 100 µM (inactive)	> 100 µM (inactive)	> 100 µM (inactive)	> 100 µM (inactive)	> 100 µM (inactive)	> 100	–
COc1ccc(CN2C(=O)C(Cc3cc(OC)c(OC)c(C)c3OC)N(C(=O)OC(C)C)C(=O)/C2=C/c2cc(OC)c(OC)c(C)c2OC)cc1 (stereo not given)	48 µM (inactive)	45.2 µM (inactive)	> 100 µM (inactive)	> 100 µM (inactive)	83.8 µM (inactive)	7.96 µM (inactive)	> 100 µM (inactive)	> 100 µM (inactive)	> 100 µM (inactive)	> 100 µM (inactive)	14.8 µM (inactive)	> 100 µM (inactive)	> 100 µM (inactive)	> 100 µM (inactive)	> 100 µM (inactive)	–	15.2 µM (inactive)
CCOC(=O)CCCO	> 100 µM (inactive)	–	> 100 µM (inactive)	> 100 µM (inactive)	71.3 µM (inactive)	> 100 µM (inactive)	> 100 µM (inactive)	> 100 µM (inactive)	–	> 100 µM (inactive)	–	> 100 µM (inactive)	> 100 µM (inactive)	> 100 µM (inactive)	> 100 µM (inactive)	> 100	> 100 µM (inactive)
O=C(Nc1cccc2c1C(=O)c1c(NC(=O)c3ccccc3)ccc(Nc3cccc4c3C(=O)c3ccccc3C4=O)c1C2=O)c1ccccc1	> 100 µM (inactive)	> 100 µM (inactive)	> 100 µM (inactive)	> 100 µM (inactive)	70.3 µM (inactive)	> 100 µM (inactive)	–	> 100 µM (inactive)	> 100 µM (inactive)	> 100 µM (inactive)	> 100 µM (inactive)	–	> 100 µM (inactive)	> 100 µM (inactive)	> 100 µM (inactive)	> 100	> 100 µM (inactive)
O=C(c1nc2ccccc2nc1O)C(O)c1ccco1 (stereo not given)	> 100 µM (inactive)	> 100 µM (inactive)	> 100 µM (inactive)	> 100 µM (inactive)	45.8 µM (inactive)	> 100 µM (inactive)	> 100 µM (inactive)	54.5 µM (inactive)	> 100 µM (inactive)	> 100 µM (inactive)	> 100 µM (inactive)	> 100 µM (inactive)	> 100 µM (inactive)	> 100 µM (inactive)	> 100 µM (inactive)	51.8	–
COc1cc([C@@H]2c3cc4c(cc3[C@@H](OC(=O)c3ccc(N)cc3)C3COC(=O)[C@@H]32)OCO4)cc(OC)c1O (stereo not given in full)	9.14 µM (inactive)	5.98 µM (inactive)	12.2 µM (inactive)	4.49 µM (inactive)	3.21 µM (inactive)	3.1 µM (inactive)	3.32 µM (inactive)	7.74 µM (inactive)	3.5 µM (inactive)	17.6 µM (inactive)	6.97 µM (inactive)	41.5 µM (inactive)	4.45 µM (inactive)	5.02 µM (inactive)	7.08 µM (inactive)	12.8	–
Cc1cc(C(C)C)cc(=O)c(O)c1	> 100 µM (inactive)	> 100 µM (inactive)	> 100 µM (inactive)	> 100 µM (inactive)	> 100 µM (inactive)	> 100 µM (inactive)	–	> 100 µM (inactive)	> 100 µM (inactive)	> 100 µM (inactive)	> 100 µM (inactive)	> 100 µM (inactive)	> 100 µM (inactive)	> 100 µM (inactive)	> 100 µM (inactive)	> 100	> 100 µM (inactive)
Cc1ccc(SSCCCS(=O)O)cc1	50.2 µM (inactive)	24 µM (inactive)	60 µM (inactive)	21.6 µM (inactive)	21.8 µM (inactive)	0.435 µM (active)	39 µM (inactive)	37.4 µM (inactive)	29.2 µM (inactive)	39.5 µM (inactive)	–	74.6 µM (inactive)	17.4 µM (inactive)	31.9 µM (inactive)	40.4 µM (inactive)	29.2	–
O=C1NC2(O)c3ccccc3C(=O)C2(O)N1c1ccccc1 (stereo not given)	> 100 µM (inactive)	> 100 µM (inactive)	> 100 µM (inactive)	> 100 µM (inactive)	> 100 µM (inactive)	> 100 µM (inactive)	> 100 µM (inactive)	–	–	> 100 µM (inactive)	–	> 100 µM (inactive)	> 100 µM (inactive)	> 100 µM (inactive)	> 100 µM (inactive)	> 100	> 100 µM (inactive)
CCSC(=O)C1(C)OC2CCCCC2C1=O (stereo not given)	> 100 µM (inactive)	> 100 µM (inactive)	> 100 µM (inactive)	> 100 µM (inactive)	> 100 µM (inactive)	> 100 µM (inactive)	–	> 100 µM (inactive)	> 100 µM (inactive)	> 100 µM (inactive)	> 100 µM (inactive)	–	> 100 µM (inactive)	> 100 µM (inactive)	> 100 µM (inactive)	> 100	> 100 µM (inactive)
C=CCN1C2Cc3cc(OC)c(OC)cc3C1Cc1cc(OC)c(OC)cc12	> 100 µM (inactive)	–	> 100 µM (inactive)	> 100 µM (inactive)	> 100 µM (inactive)	–	78.9 µM (inactive)	> 100 µM (inactive)	> 100 µM (inactive)	> 100 µM (inactive)	–	> 100 µM (inactive)	> 100 µM (inactive)	> 100 µM (inactive)	> 100 µM (inactive)	> 100	–
N#CCCN(c1ccc(-c2nnc(NC(=O)CNNC(=O)CC(=O)Nc3ccccc3)s2)cc1)S(=O)(=O)c1ccccc1	> 100 µM (inactive)	> 100 µM (inactive)	> 100 µM (inactive)	> 100 µM (inactive)	29 µM (inactive)	39.4 µM (inactive)	76.6 µM (inactive)	> 100 µM (inactive)	> 100 µM (inactive)	> 100 µM (inactive)	59.3 µM (inactive)	> 100 µM (inactive)	> 100 µM (inactive)	88.1 µM (inactive)	> 100 µM (inactive)	> 100	–
